Test system: GST-Bcl-2
Experiment: TR-FRET binding assay, Bcl-2
Conditions: TR-FRET Ki values
Procedure, shortened: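 Ki values come from Wang's competitive-binding equation applied to TR-FRET signal (excitation 340/35 nm; emission 520/525 nm F-Bak peptide, 495/510 nm Tb antibody). Protein, probe and antibody incubated with compound 3 h at room temperature; dilution series began at 50 μM as 2× stock in 10% DMSO.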

Compound | Binding selectivity ratio (Bcl-XL Ki/Bcl-2 Ki)
CC1(C)CCC(CN2CCN(c3ccc(C(=O)NS(=O)(=O)c4ccc(CCC5OCCO5)c([N+](=O)[O-])c4)c(Oc4ccc5[nH]ccc5c4)c3)CC2)=C(c2ccc(Cl)cc2)C1 [EXAMPLE 278, 4-(4-{[2-(4-chlorophenyl)-4,4-dimethylcyclohex-1-en-1-yl]methyl}piperazin-1-yl)-N-({4-[2-(1,3-dioxolan-2-yl)ethyl]-3-nitrophenyl}sulfonyl)-2-(1H-indol-5-yloxy)benzamide] | >929.4
CC1(C)CCC(CN2CCN(c3ccc(C(=O)NS(=O)(=O)c4ccc(OCC5(F)CCOCC5)c(Cl)c4)c(Oc4cccc5[nH]ncc45)c3)CC2)=C(c2ccc(Cl)cc2)C1 [EXAMPLE 464, N-({3-chloro-4-[(4-fluorotetrahydro-2H-pyran-4-yl)methoxy]phenyl}sulfonyl)-4-(4-{[2-(4-chlorophenyl)-4,4-dimethylcyclohex-1-en-1-yl]methyl}piperazin-1-yl)-2-(1H-indazol-4-yloxy)benzamide] | 6432
CC1(C)CCC(CN2CCN(c3ccc(C(=O)NS(=O)(=O)c4ccc(NCCN5CCCC5=O)c([N+](=O)[O-])c4)c(Oc4ccc5[nH]ccc5c4)c3)CC2)=C(c2ccc(Cl)cc2)C1 [EXAMPLE 251, 4-(4-{[2-(4-chlorophenyl)-4,4-dimethylcyclohex-1-en-1-yl]methyl}piperazin-1-yl)-2-(1H-indol-5-yloxy)-N-[(3-nitro-4-{[2-(2-oxopyrrolidin-1-yl)ethyl]amino}phenyl)sulfonyl]benzamide] | 1438.5
CC(c1ccccc1-c1ccc(Cl)cc1)N1CCN(c2ccc(C(=O)NS(=O)(=O)c3ccc(NCC4CCOCC4)c([N+](=O)[O-])c3)c(Oc3cccc4[nH]ccc34)c2)CC1 (stereo not shown) [Example 175, 4-{4-[1-(4′-chloro-1,1′-biphenyl-2-yl)ethyl]piperazin-1-yl}-2-(1H-indol-4-yloxy)-N-({3-nitro-4-[(tetrahydro-2H-pyran-4-ylmethyl)amino]phenyl}sulfonyl)benzamide] | >6600
CN(C)CCCNc1ccc(S(=O)(=O)NC(=O)c2ccc(N3CCN(CC4=C(c5ccc(Cl)cc5)CC(C)(C)CC4)CC3)cc2Oc2ccc3[nH]ccc3c2)cc1S(=O)(=O)C(F)(F)Cl [Example 67, N-[(3-{[chloro(difluoro)methyl]sulfonyl}-4-{[3-(dimethylamino)propyl]amino}phenyl)sulfonyl]-4-(4-{[2-(4-chlorophenyl)-4,4-dimethylcyclohex-1-en-1-yl]methyl}piperazin-1-yl)-2-(1H-indol-5-yloxy)benzamide] | >2.3
CC1(C)CCC(CN2CCN(c3ccc(C(=O)NS(=O)(=O)c4ccc(NCC5CCOCC5)c([N+](=O)[O-])c4)c(Oc4cccc5c4CCNC5)c3)CC2)=C(c2ccc(Cl)cc2)C1 [EXAMPLE 399, 4-(4-{[2-(4-chlorophenyl)-4,4-dimethylcyclohex-1-en-1-yl]methyl}piperazin-1-yl)-N-({3-nitro-4-[(tetrahydro-2H-pyran-4-ylmethyl)amino]phenyl}sulfonyl)-2-(1,2,3,4-tetrahydroisoquinolin-5-yloxy)benzamide] | >225764.520763495
CC1(C)CCC(CN2CCN(c3ccc(C(=O)NS(=O)(=O)c4ccc(NC5CCN(C6CCOCC6)CC5)c([N+](=O)[O-])c4)c(Oc4cccc5[nH]cnc45)c3)CC2)=C(c2ccc(Cl)cc2)C1 [EXAMPLE 417, 2-(1H-benzimidazol-4-yloxy)-4-(4-{[2-(4-chlorophenyl)-4,4-dimethylcyclohex-1-en-1-yl]methyl}piperazin-1-yl)-N-({3-nitro-4-[(1-tetrahydro-2H-pyran-4-ylpiperidin-4-yl)amino]phenyl}sulfonyl)benzamide] | 87.06
